A short description of the test: DPPH Radical Scavenging Activity. The note with it: DPPH 0.06 mM in methanol. Here is the method: Extraction and isolation of C-PC are carried out as is known in the art (Wu et al. 2016) using commercial grade biomass from a source in Hawaii. The C-PC is then further purified by ultrafiltration using a 10 kDa membrane to obtain an absorbance ratio of A620/A280 of 1.4 and stored frozen as a lyophilized powder. For testing, powder is solubilized in phosphate-citrate buffer to 0.4 mg/mL. Samples are tested for thermal stability at 65° C. for 30 minutes, at pH 6.0, per Example 3. The addition of EPS at a concentration of 1% (w/v; produced from resolubilized lyophilized powder with no added grinding) results in a reduction of the CR value by 13% compared to the control lacking stabilizing agents after exposure to 65° C. for 30 min at pH 6.0. This indicates added stabilization, which can likely be optimized with additional testing. Antioxidant capacity is measured using the DPPH Radical Scavenging Activity as is known in the art (Alam et al. 2013), with the modification of using DPPH (1,1-diphenyl-2-picrylhydrazyl; Sigma-Aldrich D9132) in methanol (0.06 mM), and readings taken on a Biotek Synergy HTX multi-mode microplate reader.
(In general: Loss of DPPH colour is used to gauge radical scavenging.)

For the substance phycocyanin, the “antioxidant activity IC50” value is given as 1.8 mg/mL.

The values above are taken from patent US12180526B2, “Subterranean microalgae for production of microbial biomass, substances, and compositions” (Kuehnle AgroSystems, Inc., priority 2019, dated 2024).
